Data as given in PubChem BioAssay (NCI).
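Here, GI50 denotes the concentration required for 50% inhibition of growth. Definition used: TGI = concentration required for complete inhibition of growth.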

How the values were obtained:
Assay in all cases: NCI tumour cell line growth inhibition, 384-well format
HCT-15 colon = system: HCT-15 colon
OVCAR-3 ovarian = system: OVCAR-3 ovarian
SK-OV-3 ovarian = system: SK-OV-3 ovarian
RPMI-8226 leukemia = system: RPMI-8226 leukemia
MCF7 breast = system: MCF7 breast
DU-145 prostate = system: DU-145 prostate
SK-MEL-5 melanoma = system: SK-MEL-5 melanoma
UACC-62 melanoma = system: UACC-62 melanoma
HCC-2998 colon = system: HCC-2998 colon
EKVX NSCLC = system: EKVX NSCLC
RXF 393 renal = system: RXF 393 renal
HOP-92 NSCLC = system: HOP-92 NSCLC
CCRF-CEM leukemia = system: CCRF-CEM leukemia
NCI-H322M lung = system: NCI-H322M lung
MALME-3M melanoma = system: MALME-3M melanoma
HOP-62 NSCLC = system: HOP-62 NSCLC
IGROV1 ovarian = system: IGROV1 ovarian
NCI-H460 NSCLC = system: NCI-H460 NSCLC
LOX IMVI melanoma = system: LOX IMVI melanoma
HS 578T breast = system: HS 578T breast
KM12 colon = system: KM12 colon
SW-620 colon = system: SW-620 colon
NCI-H226 lung = system: NCI-H226 lung
OVCAR-8 ovarian = system: OVCAR-8 ovarian
CAKI-1 renal = system: CAKI-1 renal
HCT-116 colon = system: HCT-116 colon
NCI-H23 lung = system: NCI-H23 lung
SNB-75 CNS = system: SNB-75 CNS
COLO 205 colon = system: COLO 205 colon
TK-10 renal = system: TK-10 renal
SN12C renal = system: SN12C renal
UO-31 renal = system: UO-31 renal
NCI/ADR-RES ovarian = system: NCI/ADR-RES ovarian
A498 renal = system: A498 renal
M14 melanoma = system: M14 melanoma
U251 glioblastoma = system: U251 glioblastoma
HL-60(TB) leukemia = system: HL-60(TB) leukemia
SR leukemia = system: SR leukemia
MDA-MB-435 melanoma = system: MDA-MB-435 melanoma
SF-268 CNS = system: SF-268 CNS
A549 NSCLC = system: A549 NSCLC
786-0 renal = system: 786-0 renal
UACC-257 melanoma = system: UACC-257 melanoma
SNB-19 CNS = system: SNB-19 CNS
SK-MEL-28 melanoma = system: SK-MEL-28 melanoma
MOLT-4 leukemia = system: MOLT-4 leukemia
HT29 colon = system: HT29 colon
SK-MEL-2 melanoma = system: SK-MEL-2 melanoma
SF-539 CNS = system: SF-539 CNS
BT-549 breast = system: BT-549 breast
OVCAR-4 ovarian = system: OVCAR-4 ovarian
MDA-MB-231 breast = system: MDA-MB-231 breast

`C[C@@]1(O)CCC[C@H]1n1c(=O)c(C(F)F)cc2cnc(NC3CCN(S(C)(=O)=O)CC3)nc21` showed a GI50 (HCT-15 colon) of 1790 nM, a TGI (HCT-15 colon) of 15.8 µM and a GI50 (OVCAR-3 ovarian) of 1520 nM. For the same compound, the TGI (OVCAR-3 ovarian) was 5.57 µM, the GI50 (SK-OV-3 ovarian) was 3.01 µM and the TGI (SK-OV-3 ovarian) was > 100 µM. For the same compound, the GI50 (RPMI-8226 leukemia) was 29 nM, the TGI (RPMI-8226 leukemia) was 95.1 nM and the GI50 (MCF7 breast) was 128 nM. The TGI (MCF7 breast) was 19.1 µM, the GI50 (DU-145 prostate) was 1630 nM and the TGI (DU-145 prostate) was 6.38 µM. For the same compound, the GI50 (SK-MEL-5 melanoma) was 99.3 nM, the TGI (SK-MEL-5 melanoma) was 2280 nM and the GI50 (UACC-62 melanoma) was 951 nM. For the same compound, the TGI (UACC-62 melanoma) was 2940 nM, the GI50 (HCC-2998 colon) was 1380 nM and the TGI (HCC-2998 colon) was 3.9 µM. It also gave a GI50 (EKVX NSCLC) of 1900 nM, a TGI (EKVX NSCLC) of 5.15 µM and a GI50 (RXF 393 renal) of 1440 nM. For the same compound, the TGI (RXF 393 renal) was 2880 nM, the GI50 (HOP-92 NSCLC) was 2050 nM and the TGI (HOP-92 NSCLC) was > 100 µM. The GI50 (CCRF-CEM leukemia) was 357 nM, the TGI (CCRF-CEM leukemia) was 1770 nM and the GI50 (NCI-H322M lung) was 2070 nM. For the same compound, the TGI (NCI-H322M lung) was 5.8 µM, the GI50 (MALME-3M melanoma) was 1440 nM and the TGI (MALME-3M melanoma) was 3.16 µM. The GI50 (HOP-62 NSCLC) was 1800 nM, the TGI (HOP-62 NSCLC) was 6.59 µM and the GI50 (IGROV1 ovarian) was 1620 nM. For the same compound, the TGI (IGROV1 ovarian) was > 100 µM, the GI50 (NCI-H460 NSCLC) was 58.9 nM and the TGI (NCI-H460 NSCLC) was 2180 nM. The GI50 (LOX IMVI melanoma) was 1600 nM, the TGI (LOX IMVI melanoma) was > 100 µM and the GI50 (HS 578T breast) was 1920 nM. For the same compound, the TGI (HS 578T breast) was 4.04 µM, the GI50 (KM12 colon) was 1070 nM and the TGI (KM12 colon) was 3.92 µM. The GI50 (SW-620 colon) was 94.4 nM, the TGI (SW-620 colon) was > 100 µM and the GI50 (NCI-H226 lung) was 1100 nM. The TGI (NCI-H226 lung) was > 100 µM, the GI50 (OVCAR-8 ovarian) was 1540 nM and the TGI (OVCAR-8 ovarian) was > 100 µM. The GI50 (CAKI-1 renal) was 784 nM, the TGI (CAKI-1 renal) was > 100 µM and the GI50 (HCT-116 colon) was 198 nM. The TGI (HCT-116 colon) was > 100 µM, the GI50 (NCI-H23 lung) was 1680 nM and the TGI (NCI-H23 lung) was 3.3 µM. It also gave a GI50 (SNB-75 CNS) of 1420 nM, a TGI (SNB-75 CNS) of 3.02 µM and a GI50 (COLO 205 colon) of 1330 nM. The TGI (COLO 205 colon) was 4.74 µM, the GI50 (TK-10 renal) was 1150 nM and the TGI (TK-10 renal) was > 100 µM. For the same compound, the GI50 (SN12C renal) was 1990 nM, the TGI (SN12C renal) was 4.92 µM and the GI50 (UO-31 renal) was 1010 nM. The TGI (UO-31 renal) was 4.13 µM, the GI50 (NCI/ADR-RES ovarian) was 21 µM and the TGI (NCI/ADR-RES ovarian) was > 100 µM. The GI50 (A498 renal) was 1750 nM, the TGI (A498 renal) was > 100 µM and the GI50 (M14 melanoma) was 1470 nM. For the same compound, the TGI (M14 melanoma) was 5.49 µM, the GI50 (U251 glioblastoma) was 2030 nM and the TGI (U251 glioblastoma) was 8.8 µM. It also gave a GI50 (HL-60(TB) leukemia) of 72.1 nM, a TGI (HL-60(TB) leukemia) of 1200 nM and a GI50 (SR leukemia) of 34.4 nM. For the same compound, the TGI (SR leukemia) was 1080 nM, the GI50 (MDA-MB-435 melanoma) was 1630 nM and the TGI (MDA-MB-435 melanoma) was 9.28 µM. For the same compound, the GI50 (SF-268 CNS) was 1690 nM, the TGI (SF-268 CNS) was 4.04 µM and the GI50 (A549 NSCLC) was 1980 nM. The TGI (A549 NSCLC) was > 100 µM, the GI50 (786-0 renal) was 1850 nM and the TGI (786-0 renal) was > 100 µM. The GI50 (UACC-257 melanoma) was 1630 nM, the TGI (UACC-257 melanoma) was 3.97 µM and the GI50 (SNB-19 CNS) was 2400 nM. The TGI (SNB-19 CNS) was > 100 µM, the GI50 (SK-MEL-28 melanoma) was 1210 nM and the TGI (SK-MEL-28 melanoma) was 2910 nM. For the same compound, the GI50 (MOLT-4 leukemia) was 445 nM, the TGI (MOLT-4 leukemia) was 1930 nM and the GI50 (HT29 colon) was 1830 nM. For the same compound, the TGI (HT29 colon) was > 100 µM, the GI50 (SK-MEL-2 melanoma) was 2250 nM and the TGI (SK-MEL-2 melanoma) was 4.21 µM. The GI50 (SF-539 CNS) was 1300 nM, the TGI (SF-539 CNS) was 2890 nM and the GI50 (BT-549 breast) was 866 nM. The TGI (BT-549 breast) was 3.04 µM, the GI50 (OVCAR-4 ovarian) was 3.04 µM and the TGI (OVCAR-4 ovarian) was 7.15 µM. For the same compound, the GI50 (MDA-MB-231 breast) was 2340 nM and the TGI (MDA-MB-231 breast) was > 100 µM.
